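How tested: cells in 96-well plates exposed to compound for 48 hours at five concentrations. Here, GI50 denotes the concentration required for 50% inhibition of growth.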 Calls of active or inactive are those of the source. Rule as the data show it: active = GI50 up to about 1.1 µM and inactive = higher.
Key:
Experiment in all cases: NCI-60 cell line screen, 48 h
[1] = system: IGROV-1
[2] = system: U-251
[3] = system: NCI-H226
[4] = system: UACC-62
[5] = system: MOLT-4
[6] = system: HCT-15
[7] = system: OVCAR-5
[8] = system: SK-OV-3
[9] = system: OVCAR-3
[10] = system: SF-268
[11] = system: OVCAR-4
[12] = system: CAKI-1
[13] = system: DMS-114
[14] = system: A498
[15] = system: XF498
[16] = system: SNB-19
[17] = system: HCT-116
[18] = system: K562
[19] = system: OVCAR-8
[20] = system: CCRF-CEM
[21] = system: 786-0
[22] = system: LXFL 529
[23] = system: NCI-H522
[24] = system: KM12
[25] = system: ACHN
[26] = system: EKVX
[27] = system: SK-MEL-5
[28] = system: SNB-75
[29] = system: DLD-1
[30] = system: M14
[31] = system: SK-MEL-2
[32] = system: HOP-62
[33] = system: A549
[34] = system: LOX IMVI
[35] = system: NCI-H460
[36] = system: NCI-H23
[37] = system: SW-620
[38] = system: SNB-78
[39] = system: Malme-3M
[40] = system: HOP-92
[41] = system: SF-539
[42] = system: UACC-257
[43] = system: COLO 205
[44] = system: M19-MEL
[45] = system: DMS-273
[46] = system: SK-MEL-28
[47] = system: SF-295
[48] = system: TK-10
[49] = system: HCC 2998
[50] = system: KM-20L2
[51] = system: UO-31
[52] = system: SN12C

`COc1ccc([C@H]2CC3C(=O)N(c4ccc(OC)cc4)C(=O)C3c3[nH]c4ccccc4c32)cc1` (some centres not stated) was tested, and the GI50 [1] was > 100 µM (inactive), the GI50 [2] was 59.6 µM (inactive) and the GI50 [3] was 91 µM (inactive). For the same compound, the GI50 [4] was > 100 µM (inactive), the GI50 [5] was 32.9 µM (inactive) and the GI50 [6] was 57.4 µM. For the same compound, the GI50 [7] was > 100 µM (inactive), the GI50 [8] was 44.2 µM (inactive) and the GI50 [9] was > 100 µM (inactive). For the same compound, the GI50 [10] was 82 µM (inactive), the GI50 [11] was > 100 µM (inactive) and the GI50 [12] was > 100 µM (inactive). For the same compound, the GI50 [13] was 87.9 µM (inactive), the GI50 [14] was > 100 µM (inactive) and the GI50 [15] was 32.7 µM (inactive). For the same compound, the GI50 [16] was 32.1 µM (inactive), the GI50 [17] was 9.31 µM (inactive) and the GI50 [18] was > 100 µM (inactive). For the same compound, the GI50 [19] was 17.1 µM (inactive), the GI50 [20] was 48.4 µM (inactive) and the GI50 [21] was 10.8 µM (inactive). The GI50 [22] was 55.1 µM (inactive), the GI50 [23] was 99.5 µM (inactive) and the GI50 [24] was 47 µM (inactive). The GI50 [25] was > 100 µM (inactive), the GI50 [26] was > 100 µM (inactive) and the GI50 [27] was 46.3 µM (inactive). For the same compound, the GI50 [28] was 16.1 µM (inactive), the GI50 [29] was 93.8 µM (inactive) and the GI50 [30] was 66.5 µM (inactive). For the same compound, the GI50 [31] was 53 µM (inactive), the GI50 [32] was 32.7 µM (inactive) and the GI50 [33] was 47.4 µM (inactive). The GI50 [34] was > 100 µM (inactive), the GI50 [35] was 18.6 µM (inactive) and the GI50 [36] was 54 µM (inactive). The GI50 [37] was 45.6 µM (inactive), the GI50 [38] was > 100 µM (inactive) and the GI50 [39] was 36.1 µM (inactive). For the same compound, the GI50 [40] was 24 µM (inactive), the GI50 [41] was 20.7 µM (inactive) and the GI50 [42] was > 100 µM (inactive). The GI50 [43] was 97.5 µM (inactive), the GI50 [44] was 71.4 µM (inactive) and the GI50 [45] was 14.8 µM (inactive). For the same compound, the GI50 [46] was 83.9 µM (inactive), the GI50 [47] was 16.7 µM (inactive) and the GI50 [48] was > 100 µM (inactive). The GI50 [49] was > 100 µM (inactive), the GI50 [50] was 69.5 µM (inactive) and the GI50 [51] was > 100 µM (inactive). For the same compound, the GI50 [52] was 51.9 µM (inactive).

Reference: ChEMBL document CHEMBL1201862, “PubChem BioAssay data set” (2004)
